Data on 8 compounds can be found in ChEMBL document CHEMBL1151061, “Synthesis and inhibitory effects of bivalent sialyl lewis X analogs at preventing cell adhesion” (Bioorg Med Chem Lett, 1997).

For the test, the target named is T1, E-selectin (Homo sapiens, UniProt P16581).
T1 sequence (P16581 whole entry): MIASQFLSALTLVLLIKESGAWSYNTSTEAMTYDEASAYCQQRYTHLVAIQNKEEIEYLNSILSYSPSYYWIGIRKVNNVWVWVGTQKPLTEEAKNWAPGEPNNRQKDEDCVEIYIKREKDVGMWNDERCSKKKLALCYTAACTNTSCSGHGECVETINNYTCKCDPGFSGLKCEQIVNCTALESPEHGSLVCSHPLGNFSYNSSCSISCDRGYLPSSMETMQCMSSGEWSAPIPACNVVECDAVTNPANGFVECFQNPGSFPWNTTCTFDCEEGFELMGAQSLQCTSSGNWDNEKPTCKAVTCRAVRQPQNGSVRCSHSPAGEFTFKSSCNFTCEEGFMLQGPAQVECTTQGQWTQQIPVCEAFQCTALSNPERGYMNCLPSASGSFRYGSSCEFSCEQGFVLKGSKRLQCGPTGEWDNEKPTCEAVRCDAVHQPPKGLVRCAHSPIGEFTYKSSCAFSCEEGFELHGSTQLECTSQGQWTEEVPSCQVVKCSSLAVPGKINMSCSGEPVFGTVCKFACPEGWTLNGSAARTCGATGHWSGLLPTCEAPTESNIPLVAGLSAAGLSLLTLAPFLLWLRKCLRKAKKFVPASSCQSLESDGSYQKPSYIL
Kind of test: Compound was evaluated for its inhibitory activity against adhesion of HL-60(human promyelocytic leukemia cells) to recombinant human soluble E-selectin (rhsE).
What is called IC50 is the concentration at which inhibition is half-maximal. Turning to `CO[C@H]1O[C@@H](O[C@H]2[C@H](O[C@@H]3O[C@@H](C)[C@@H](O)[C@@H](O)[C@@H]3O)[C@@H](NC(=O)c3ccc4ccccc4c3)[C@H](OCCCc3cccc(CCCO[C@@H]4O[C@H](CO)[C@@H](O[C@@H]5O[C@H](OC)[C@H](O)[C@H](O[C@]6(C(=O)O)C[C@H](O)[C@@H](NC(C)=O)[C@H]([C@H](O)[C@H](O)CO)O6)[C@H]5O)[C@H](O[C@@H]5O[C@@H](C)[C@@H](O)[C@@H](O)[C@@H]5O)[C@H]4NC(=O)c4ccc5ccccc5c4)c3)O[C@@H]2CO)[C@H](O)[C@@H](O[C@]2(C(=O)O)C[C@H](O)[C@@H](NC(C)=O)[C@H]([C@H](O)[C@H](O)CO)O2)[C@H]1O`, the IC50 stood at 32 µM.

Take `COC(=O)N[C@@H]1C(O)C(OC2C(O)[C@H](O[C@@H]3C(CO)O[C@@H](OCCCO[C@@H]4CCC[C@H](OCCCO[C@@H]5OC(CO)[C@@H](O[C@@H]6OC(CO)[C@H](O)C(OC7C(O)[C@@H](NC(=O)OC)C([C@H](O)[C@H](O)CO)O[C@H]7C(=O)O)C6O)C(O[C@@H]6OC(C)[C@H](O)C(O)C6O)C5Nc5ccc6ccccc6c5)C4)C(Nc4ccc5ccccc5c4)C3O[C@@H]3OC(C)[C@H](O)C(O)C3O)OC(CO)[C@@H]2O)[C@H](C(=O)O)OC1[C@H](O)[C@H](O)CO` (stereo partly drawn): the IC50 amounted to 41 µM.

On to `COC(=O)N[C@@H]1C(O)C(OC2C(O)[C@H](O[C@@H]3C(CO)O[C@@H](OCCCO[C@H]4CCC[C@H](OCCCO[C@@H]5OC(CO)[C@@H](O[C@@H]6OC(CO)[C@H](O)C(OC7C(O)[C@@H](NC(=O)OC)C([C@H](O)[C@H](O)CO)O[C@H]7C(=O)O)C6O)C(O[C@@H]6OC(C)[C@H](O)C(O)C6O)C5Nc5ccc6ccccc6c5)C4)C(Nc4ccc5ccccc5c4)C3O[C@@H]3OC(C)[C@H](O)C(O)C3O)OC(CO)[C@@H]2O)[C@H](C(=O)O)OC1[C@H](O)[C@H](O)CO` (stereo partly drawn), for which the concentration for half-maximal inhibition (IC50) was 49 µM.

Take `CC(=O)N[C@@H]1[C@@H]([C@H](O)[C@H](O)CO)O[C@](O[C@H]2[C@@H](O)[C@@H](O[C@@H]3[C@@H](O[C@H]4O[C@H](C)[C@H](O)[C@@H](O)[C@H]4O)[C@@H](NC(=O)c4ccc5ccccc5c4)[C@@H](OCCc4cccc(CCO[C@@H]5O[C@@H](CO)[C@@H](O[C@@H]6O[C@@H](CO)[C@H](O)[C@H](O[C@]7(C(=O)O)C[C@@H](O)[C@@H](NC(C)=O)[C@H]([C@H](O)[C@H](O)CO)O7)[C@@H]6O)[C@H](O[C@@H]6O[C@@H](C)[C@@H](O)[C@H](O)[C@@H]6O)[C@@H]5NC(=O)c5ccc6ccccc6c5)c4)O[C@@H]3CO)O[C@H](CO)[C@H]2O)(C(=O)O)C[C@@H]1O`: the IC50 is 60 µM.

Take `CC(=O)N[C@@H]1[C@@H]([C@H](O)[C@H](O)CO)O[C@](O[C@H]2[C@@H](O)[C@@H](O[C@@H]3[C@@H](O[C@H]4O[C@H](C)[C@H](O)[C@@H](O)[C@H]4O)[C@@H](NC(=O)c4ccc5ccccc5c4)[C@@H](OCCCOc4cccc(OCCCO[C@@H]5O[C@@H](CO)[C@@H](O[C@@H]6O[C@@H](CO)[C@H](O)[C@H](O[C@]7(C(=O)O)C[C@@H](O)[C@@H](NC(C)=O)[C@H]([C@H](O)[C@H](O)CO)O7)[C@@H]6O)[C@H](O[C@@H]6O[C@@H](C)[C@@H](O)[C@H](O)[C@@H]6O)[C@@H]5NC(=O)c5ccc6ccccc6c5)c4)O[C@@H]3CO)O[C@H](CO)[C@H]2O)(C(=O)O)C[C@@H]1O`: the half-inhibitory concentration (IC50) is 37 µM.

Regarding `CCO[C@@H]1O[C@@H](CO)[C@@H](O[C@@H]2O[C@@H](CO)[C@H](O)[C@H](O[C@]3(C(=O)O)C[C@@H](O)[C@@H](NC(C)=O)[C@H]([C@H](O)[C@H](O)CO)O3)[C@@H]2O)[C@H](O[C@@H]2O[C@@H](C)[C@@H](O)[C@H](O)[C@@H]2O)[C@@H]1NC(C)=O`, the half-maximal inhibitory concentration (IC50) was 1500 µM.

Regarding `CC(=O)N[C@@H]1[C@@H]([C@H](O)[C@H](O)CO)O[C@](O[C@H]2[C@@H](O)[C@@H](O[C@@H]3[C@@H](O[C@H]4O[C@H](C)[C@H](O)[C@@H](O)[C@H]4O)[C@@H](NC(=O)c4ccc5ccccc5c4)[C@@H](OCc4cccc(CO[C@@H]5O[C@@H](CO)[C@@H](O[C@@H]6O[C@@H](CO)[C@H](O)[C@H](O[C@]7(C(=O)O)C[C@@H](O)[C@@H](NC(C)=O)[C@H]([C@H](O)[C@H](O)CO)O7)[C@@H]6O)[C@H](O[C@@H]6O[C@@H](C)[C@@H](O)[C@H](O)[C@@H]6O)[C@@H]5NC(=O)c5ccc6ccccc6c5)c4)O[C@@H]3CO)O[C@H](CO)[C@H]2O)(C(=O)O)C[C@@H]1O`, the half-maximal inhibitory concentration (IC50) stood at 30 µM.

In the case of `CC(=O)N[C@H]1[C@H]([C@H](O)[C@H](O)CO)O[C@@](O[C@@H]2[C@H](O)[C@H](O[C@H]3[C@H](O[C@@H]4O[C@@H](C)[C@@H](O)[C@H](O)[C@@H]4O)[C@H](NC(=O)c4ccc5ccccc5c4)[C@H](OCCCc4cccc(CCCO)c4)O[C@H]3CO)O[C@@H](CO)[C@@H]2O)(C(=O)O)C[C@H]1O`, the IC50 came to 200 µM.
